# Experiments:
# A101D = assay: Cell growth assay; assay type: cell-based; details: Homo sapiens, 72 h, BRAF(V600E), RAS WT, 3-day, read-out: gIC50
# Procedure: (§1) Growth was measured with CellTiter-Glo® (Promega) reagent per the manufacturer’s protocol, using a PerkinElmer EnVision™ reader at t = 0 and 72 h. IC50 values for cell growth inhibition (gIC50) were determined.
# (§2) (PDF) Click here for additional data file.
# SW900 = assay: Cell growth assay; assay type: cell-based; details: Homo sapiens, 72 h; SW900, RAF WT, RAS WT, 3-day; read-out: gIC50
# Procedure: as §1, §2
# MC-IXC = assay: Cell growth assay; assay type: cell-based; details: Homo sapiens, 72 h, RAF WT, RAS WT, 3-day, read-out: gIC50
# Procedure: as §1, §2
# Raji = assay: Cell growth assay; assay type: cell-based; details: Homo sapiens, 72 h, RAF WT, RAS WT, 3-day, read-out: gIC50
# Procedure: as §1, §2
# COR-L23 = assay: Cell growth assay; assay type: cell-based; details: Homo sapiens, 72 h; COR-L23, RAF WT, RAS WT, 3-day; read-out: gIC50
# Procedure: as §1, §2
# A431 = assay: Cell growth assay; assay type: cell-based; details: Homo sapiens, A-431, 72 h; A431, RAF WT, RAS WT, 3-day; read-out: gIC50
# Procedure: as §1, §2
# OVCAR-4 = assay: Cell growth assay; assay type: cell-based; details: Homo sapiens, 72 h; OVCAR-4, RAF WT, RAS WT, 3-day; read-out: gIC50
# Procedure: as §1, §2
# SW1990 = assay: Cell growth assay; assay type: cell-based; details: Homo sapiens, 72 h; SW1990, RAF WT, RAS WT, 3-day; read-out: gIC50
# Procedure: as §1, §2
# HeLa = assay: Cell growth assay; assay type: cell-based; details: Homo sapiens, 72 h, RAF WT, RAS WT, 3-day, read-out: gIC50
# Procedure: as §1, §2
# SW1417 = assay: Cell growth assay; assay type: cell-based; details: Homo sapiens, 72 h; SW1417, BRAF(V600E), RAS WT, 3-day; read-out: gIC50
# Procedure: as §1, §2
# NCI-N87 = assay: Cell growth assay; assay type: cell-based; details: Homo sapiens, 72 h; NCI-N87, RAF WT, RAS WT, 3-day; read-out: gIC50
# Procedure: as §1, §2
# HOS = assay: Cell growth assay; assay type: cell-based; details: Homo sapiens, 72 h, RAF WT, RAS WT, 3-day, read-out: gIC50
# Procedure: as §1, §2
# CaOV3 = assay: Cell growth assay; assay type: cell-based; details: Homo sapiens, Caov-3, 72 h; CaOV3, RAF WT, RAS WT, 3-day; read-out: gIC50
# Procedure: as §1, §2
# SNU-1 = assay: Cell growth assay; assay type: cell-based; details: Homo sapiens, SNU1, 72 h; SNU-1, RAF WT, RAS WT, 3-day; read-out: gIC50
# Procedure: as §1, §2
# SH-4 = assay: Cell growth assay; assay type: cell-based; details: Homo sapiens, 72 h; SH-4, BRAF(V600E), RAS WT, 3-day; read-out: gIC50
# Procedure: as §1, §2
# SW684 = assay: Cell growth assay; assay type: cell-based; details: Homo sapiens, 72 h; SW684, RAF WT, RAS WT, 3-day; read-out: gIC50
# Procedure: as §1, §2
# SR = assay: Cell growth assay; assay type: cell-based; details: Homo sapiens, 72 h, RAF WT, RAS WT, 3-day, read-out: gIC50
# Procedure: as §1, §2
# CHP-212 = assay: Cell growth assay; assay type: cell-based; details: Homo sapiens, 72 h; CHP-212, RAF WT, NRAS(Q61K), 3-day; read-out: gIC50
# Procedure: as §1, §2
# LS1034 = assay: Cell growth assay; assay type: cell-based; details: Homo sapiens, LS-1034, 72 h; LS1034, RAF WT, KRAS(A146T), 3-day; read-out: gIC50
# Procedure: as §1, §2
# SCLC-3 = assay: Cell growth assay; assay type: cell-based; details: Homo sapiens, 72 h; SCLC-3, RAF WT, RAS WT, 3-day; read-out: gIC50
# Procedure: as §1, §2
# A673 = assay: Cell growth assay; assay type: cell-based; details: Homo sapiens, 72 h; A673, BRAF(V600E), RAS WT, 3-day; read-out: gIC50
# Procedure: as §1, §2
# MDA-MB-231 = assay: Cell growth assay; assay type: cell-based; details: Homo sapiens, 72 h; MDA-MB-231, BRAF(G464V), KRAS(G13D), 3-day; read-out: gIC50
# Procedure: as §1, §2
# Calu-6 = assay: Cell growth assay; assay type: cell-based; details: Homo sapiens, 72 h; Calu-6, RAF WT, KRAS(Q61K), 3-day; read-out: gIC50
# Procedure: as §1, §2
# BFTC-905 = assay: Cell growth assay; assay type: cell-based; details: Homo sapiens, 72 h; BFTC-905, RAF WT, NRAS(Q61L), 3-day; read-out: gIC50
# Procedure: as §1, §2
# [1] = test system: pMEK in A375P (BRAF^V600E) cells; assay: Western blot, pMEK in A375P cells; assay type: cell-based; details: Homo sapiens, 8 nM, 1 h
# Procedure: (§3) Cells were lysed in 25 mM Tris-HCl pH 7.5, 2 mM EDTA, 2 mM EGTA, 1% Triton X-100, 0.1% SDS, 50 mM sodium-β-glycerophosphate, 2 mM Na3VO4, 12.5 mM sodium pyrophosphate, 2× Complete EDTA-free mini protease inhibitor tablets (Roche), 2× phosphatase inhibitor cocktails I and II (Sigma-Aldrich). Protein concentrations were determined by Bio-Rad DC™ or dye-based protein assays and lysates were resolved by SDS-PAGE (Invitrogen NuPAGE®) and transferred to PVDF membranes. Membranes were blocked with Odyssey® (LI-COR Biosciences) blocking buffer and incubated with primary antibodies overnight at 4°C. Blots were washed with PBS containing 0.1% Tween-20, incubated with secondary antibodies, and washed again prior to signal detection on a LI-COR Odyssey® reader.
# siRNA complexes were prepared per the manufacturer's instructions using Dharmacon RNAi duplex (Thermo Fisher Scientific), Lipofectamine™ RNAiMAX™ (Invitrogen), and Opti-MEM® (Gibco) and allowed to form at room temperature for at least 40 min. Volumes of 1 mL of RNAi complex were added to each well of a plate with 150 000 cells in complete medium (no antibiotic) and incubated at 37°C, 5% CO2 for the indicated times.
# Lysates were immunoblotted for the proteins indicated.
# LIMK1 (h) = biological target: T1, LIMK1 (h) (Homo sapiens, UniProt P53667); assay: Kinase panel (Millipore) enzyme activity; assay type: biochemical
# T1 construct: purchased Millipore
# T1 sequence (P53667 whole entry): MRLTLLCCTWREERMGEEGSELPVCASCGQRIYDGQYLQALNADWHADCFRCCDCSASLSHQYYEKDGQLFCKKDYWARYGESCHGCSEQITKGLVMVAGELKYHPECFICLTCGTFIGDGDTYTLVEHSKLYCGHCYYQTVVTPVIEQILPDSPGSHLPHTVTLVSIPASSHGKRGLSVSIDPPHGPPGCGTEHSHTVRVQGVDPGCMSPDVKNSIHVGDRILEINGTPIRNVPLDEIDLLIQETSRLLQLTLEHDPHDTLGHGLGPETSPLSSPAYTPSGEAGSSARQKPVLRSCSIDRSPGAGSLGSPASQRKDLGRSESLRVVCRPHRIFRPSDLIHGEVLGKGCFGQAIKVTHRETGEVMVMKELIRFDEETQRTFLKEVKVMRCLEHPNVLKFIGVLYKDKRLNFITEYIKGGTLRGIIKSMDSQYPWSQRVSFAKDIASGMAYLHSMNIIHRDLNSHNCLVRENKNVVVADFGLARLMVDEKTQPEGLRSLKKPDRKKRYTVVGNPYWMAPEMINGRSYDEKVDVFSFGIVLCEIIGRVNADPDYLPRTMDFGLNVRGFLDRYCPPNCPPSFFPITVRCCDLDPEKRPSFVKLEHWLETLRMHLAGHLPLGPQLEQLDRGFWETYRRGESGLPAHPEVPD
# Source text: as §2
# [2] = test system: pMEK and pERK in HCT-116 (wild-type BRAF, mutant KRAS) cells; assay: Western blot, paradoxical MAPK activation in HCT-116 cells; assay type: cell-based, human; details: 100 nM or 300 nM, 1 h
# Procedure: as §3
# Lysates were immunoblotted for total ERK (tERK) and dual-phosphorylated ERK (ppERK) (B).
smiles,measurement,setting,value
CC(C)(C)c1nc(-c2cccc(NS(=O)(=O)c3c(F)cccc3F)c2F)c(-c2ccnc(N)n2)s1 [dabrafenib],IC50,A101D,0.009 µM
same,IC50,SW900,> 10 µM
same,IC50,MC-IXC,> 10 µM
same,IC50,Raji,> 10 µM
same,IC50,COR-L23,> 10 µM
same,IC50,A431,> 10 µM
same,IC50,OVCAR-4,> 10 µM
same,IC50,SW1990,> 10 µM
same,IC50,HeLa,> 10 µM
same,IC50,SW1417,0.158 µM
same,IC50,NCI-N87,> 10 µM
same,IC50,HOS,> 10 µM
same,IC50,CaOV3,> 10 µM
same,IC50,SNU-1,1.5 µM
same,IC50,SH-4,0.008 µM
same,IC50,SW684,> 10 µM
same,IC50,SR,> 10 µM
same,IC50,CHP-212,> 10 µM
same,IC50,LS1034,> 10 µM
same,IC50,SCLC-3,> 10 µM
same,IC50,A673,> 10 µM
same,IC50,MDA-MB-231,> 10 µM
same,IC50,Calu-6,> 10 µM
same,IC50,BFTC-905,> 10 µM
same,inhibition at 0.008 µM,[1],> 90%
same,IC50,LIMK1 (h),0.015 µM
same,pMEK and pERK compared with DMSO control,[2],increased pMEK and pERK

# Reference: article PMC3701070 (PLoS ONE, 2013)
